# Assay results taken from US20070190539A1, “Human MLR single nucleotide polymorphisms associated with dose-dependent congestive heart failure and methods of use thereof” (Bristol-Myers Squibb Company, priority 2005, published 2007).
# Assay: Phase II clinical trials CV168-006 and CV168-008: diagnosis of congestive heart failure in patients treated with compound A
# Format: in vivo, human
# Procedure: Genomic DNA samples from patients enrolled in two Bristol-Myers Squibb Company Phase II clinical trials CV168-006 and CV168-008 trials were genotyped for 1 SNP identified in the human mineralocorticoid receptor gene (see Example 1) and evaluated for association with congestive heart failure.
# 498 subjects enrolled in the CV168-006 trial and 232 subjects from the CV168-008 trial were analyzed in this study. All analyses were based on data collected up to 24 weeks, which was the duration of the short-term phase of the trials. DNA was extracted from frozen blood by a third-party (Genaissance Inc, North Carolina) using a salting-out method (Gentra Systems). All subjects gave written informed consent.
# (§1) At the time of this analysis four individuals were diagnosed as having developed congestive heart failure. All four were in the CV168-006 trial; three were being treated with 10 mg of compound A and one with 20 mg of compound A. All SNPs that were analyzed above were also tested for association with CHF using contingency tables.
# Sample. Investigators in the BMS clinical trials diagnosed dose-dependent congestive heart failure in some subjects.
# Genomic DNA samples from patients enrolled in two Bristol-Myers Squibb Company Phase II clinical trials CV168-006 and CV168-008 trials were genotyped for 1 SNP identified in the human PPAR-gamma gene (see Example 7) and evaluated for association with congestive heart failure.
# as §1, with “CV 168-006” for “CV168-006”
# Genomic DNA samples from patients enrolled in two Bristol-Myers Squibb Company Phase II clinical trials CV168-006 and CV168-008 trials were genotyped for 1 SNP identified in the human Adiponectin gene (see Example 13) and evaluated for association with congestive heart failure.
smiles,measurement,setting,value
"COc1ccc(OC(=O)N(CC(=O)O)Cc2ccc(OCCc3nc(-c4ccccc4)oc3C)cc2)cc1 [compound A, N-[(4-methoxyphenoxy)carbonyl]-N-[[4-[2-(5-methyl-2-phenyl-4-oxazolyl)ethoxy]phenyl]methyl]glycine]",individuals who developed congestive heart failure while treated with 10 mg,"CV168-006 trial, 10 mg of compound A, data up to 24 weeks",three
same,individuals who developed congestive heart failure while treated with 20 mg,"CV168-006 trial, 20 mg of compound A, data up to 24 weeks",one
same,dose dependence of congestive heart failure (CHF),"Phase II trials, patients, high doses = 10 and 20 mg arms",observed only at high doses
same,individuals diagnosed as having developed congestive heart failure,"all subjects analysed (498 in CV168-006, 232 in CV168-008), data up to 24 weeks, all four cases in the CV168-006 trial",four
